Laboratory results from ChEMBL document CHEMBL3351732, “Potent bisimidazole-based HCV NS5A inhibitors bearing annulated tricyclic motifs” (Bioorg Med Chem Lett, 2014).

Tests used:
Hepatitis C virus [1] = experiment: Antiviral activity against HCV genotype 1b infected in human HuH7 cells by luciferase reporter gene assay; assay type: functional, cell-based, Hepacivirus hominis; settings: Huh-7
Hepatitis C virus [2] = experiment: Antiviral activity against HCV genotype 1a infected in human HuH7 cells by luciferase reporter gene assay; assay type: functional, cell-based, Hepacivirus hominis; settings: subtype 1a, Huh-7
[3] = Tmax in Sprague-Dawley rat at 5 mg/kg, po; assay type: ADME, organism-based; set-up: dose 5 mg/kg, route oral; settings: in vivo
[4] = Cmax in Sprague-Dawley rat at 5 mg/kg, po; assay type: ADME, organism-based; set-up: dose 5 mg/kg, route oral; settings: in vivo
[5] = Oral bioavailability in Sprague-Dawley rat at 5 mg/kg; assay type: ADME, organism-based; settings: in vivo
[6] = (§1) AUC(last) in Sprague-Dawley rat at 1 mg/kg, iv; assay type: ADME, organism-based, Plasma; set-up: time 0 - last, dose 1 mg/kg, route intravenous; settings: Sprague-Dawley, plasma
[7] = Half life in Sprague-Dawley rat at 1 mg/kg, iv; assay type: ADME, organism-based; set-up: dose 1 mg/kg, route intravenous; settings: in vivo
[8] = Volume of distribution at steady state in Sprague-Dawley rat at 1 mg/kg, iv; assay type: ADME, organism-based; set-up: dose 1 mg/kg, route intravenous; settings: in vivo, read-out: Vdss
[9] = Plasma concentration in Sprague-Dawley rat at 5 mg/kg, po measured 4 hrs post dose; assay type: ADME, organism-based; set-up: dose 5 mg/kg, route oral
[10] = AUC(last) in Sprague-Dawley rat at 5 mg/kg, po; assay type: ADME, organism-based; set-up: dose 5 mg/kg, route oral, time 0 - last; settings: plasma
[11] = Drug level in Sprague-Dawley rat liver at 5 mg/kg, po measured 4 hrs post dose; assay type: ADME, organism-based; set-up: dose 5 mg/kg, route oral; settings: read-out: Drug uptake
[12] = (§2) Clearance in Sprague-Dawley rat at 1 mg/kg, iv; assay type: ADME, organism-based; set-up: dose 1 mg/kg, route intravenous; settings: Sprague-Dawley, in vivo
Hepatitis C virus [13] = experiment: Antiviral activity against HCV genotype 3a infected in human HuH7 cells by luciferase reporter gene assay; assay type: functional, cell-based, Hepacivirus hominis; settings: Huh-7
Hepatitis C virus [14] = experiment: Antiviral activity against HCV genotype 6a infected in human HuH7 cells by luciferase reporter gene assay; assay type: functional, cell-based, Hepacivirus hominis; settings: Huh-7
Hepatitis C virus [15] = experiment: Antiviral activity against HCV genotype 4a infected in human HuH7 cells by luciferase reporter gene assay; assay type: functional, cell-based, Hepacivirus hominis; settings: Huh-7
Hepatitis C virus [16] = experiment: Antiviral activity against HCV genotype 5a infected in human HuH7 cells by luciferase reporter gene assay; assay type: functional, cell-based, Hepacivirus hominis; settings: Huh-7
Rattus norvegicus [17] = experiment: as §1; assay type: ADME, organism-based, Plasma; set-up: time 0 - last, dose 1 mg/kg, route intravenous; settings: in vivo
Rattus norvegicus [18] = experiment: as §2; assay type: ADME, organism-based; set-up: dose 1 mg/kg, route intravenous; settings: in vivo

SMILES: COC(=O)N[C@H](C(=O)N1CCC[C@H]1c1ncc(-c2ccc3c(c2)-c2ccc(-c4cnc([C@@H]5CCCN5C(=O)[C@@H](NC(=O)OC)C(C)C)[nH]4)cc2-3)[nH]1)C(C)C
- EC50 (Hepatitis C virus [1]): 0.55 nM
- EC50 (Hepatitis C virus [2]): 3 nM

SMILES: COC(=O)N[C@H](C(=O)N1CCC[C@H]1c1ncc(-c2ccc3c(c2)CCc2cc(-c4cnc([C@@H]5CCCN5C(=O)[C@@H](NC(=O)OC)C(C)C)[nH]4)ccc2O3)[nH]1)C(C)C
- EC50 (Hepatitis C virus [1]): 0.069 nM
- EC50 (Hepatitis C virus [2]): 4.8 nM

SMILES: COC(=O)N[C@H](C(=O)N1CCC[C@H]1c1ncc(-c2ccc3c(c2)C(=O)c2cc(-c4cnc([C@@H]5CCCN5C(=O)[C@@H](NC(=O)OC)C(C)C)[nH]4)ccc2-3)[nH]1)C(C)C
- EC50 (Hepatitis C virus [1]): 0.045 nM
- EC50 (Hepatitis C virus [2]): 0.45 nM

SMILES: COC(=O)N[C@H](C(=O)N1CCC[C@H]1c1ncc(-c2ccc3c(c2)Oc2ccc(-c4cnc([C@@H]5CCCN5C(=O)[C@@H](NC(=O)OC)C(C)C)[nH]4)cc2O3)[nH]1)C(C)C
- Tmax [3]: 1.33 h
- Cmax [4]: 339 ng/mL
- bioavailability [5]: 20.1%
- AUC(0-t) [6]: 2570 ng·h/mL
- EC50 (Hepatitis C virus [1]): 0.023 nM
- half-life [7]: 2.53 h
- Vd [8]: 1.18 L/kg
- concentration at 4 h [9]: 199 ng/mL
- EC50 (Hepatitis C virus [2]): 0.044 nM
- AUC(0-t) [10]: 1470 ng·h/mL
- concentration at 4 h [11]: 973 ng/mL
- clearance [12]: 11.2 mL/min/kg
- EC50 (Hepatitis C virus [13]): 0.06 nM

SMILES: COC(=O)N[C@H](C(=O)N1CCC[C@H]1c1ncc(-c2ccc3c4ccc(-c5cnc([C@@H]6CCCN6C(=O)[C@@H](NC(=O)OC)C(C)C)[nH]5)cc4n(C)c3c2)[nH]1)C(C)C
- EC50 (Hepatitis C virus [1]): 0.17 nM
- EC50 (Hepatitis C virus [2]): 7.7 nM

SMILES: COC(=O)N[C@H](C(=O)N1CCC[C@H]1c1ncc(-c2ccc3c(c2)Oc2ccc(-c4cnc([C@@H]5CCCN5C(=O)[C@@H](NC(=O)OC)C(C)C)[nH]4)cc2C(=O)N3)[nH]1)C(C)C
- EC50 (Hepatitis C virus [1]): > 3.7 nM
- EC50 (Hepatitis C virus [2]): > 100 nM

SMILES: COC(=O)N[C@H](C(=O)N1CCC[C@H]1c1ncc(-c2ccc3nc4cc(-c5cnc([C@@H]6CCCN6C(=O)[C@@H](NC(=O)OC)C(C)C)[nH]5)ccc4nc3c2)[nH]1)C(C)C
- EC50 (Hepatitis C virus [1]): 0.037 nM
- EC50 (Hepatitis C virus [2]): 0.088 nM

SMILES: COC(=O)N[C@H](C(=O)N1CCC[C@H]1c1ncc(-c2ccc3c(c2)Cc2cc(-c4cnc([C@@H]5CCCN5C(=O)[C@@H](NC(=O)OC)C(C)C)[nH]4)ccc2O3)[nH]1)C(C)C
- EC50 (Hepatitis C virus [1]): > 3.7 nM
- EC50 (Hepatitis C virus [2]): > 100 nM

SMILES: COC(=O)N[C@H](C(=O)N1CCC[C@H]1c1ncc(-c2ccc3c(c2)CCc2ccc(-c4cnc([C@@H]5CCCN5C(=O)[C@@H](NC(=O)OC)C(C)C)[nH]4)cc2O3)[nH]1)C(C)C
- EC50 (Hepatitis C virus [1]): 0.055 nM
- EC50 (Hepatitis C virus [2]): 7.4 nM

SMILES: COC(=O)N[C@H](C(=O)N1CCC[C@H]1c1ncc(-c2ccc3oc4cc(-c5cnc([C@@H]6CCCN6C(=O)[C@@H](NC(=O)OC)C(C)C)[nH]5)c(C)cc4c(=O)c3c2)[nH]1)C(C)C
- EC50 (Hepatitis C virus [1]): 0.055 nM
- EC50 (Hepatitis C virus [2]): 3.4 nM

SMILES: COC(=O)N[C@H](C(=O)N1CCC[C@H]1c1ncc(-c2ccc3oc4cc(-c5cnc([C@@H]6CCCN6C(=O)[C@@H](NC(=O)OC)C(C)C)[nH]5)c(Cl)cc4c(=O)c3c2)[nH]1)C(C)C
- EC50 (Hepatitis C virus [1]): 0.029 nM
- EC50 (Hepatitis C virus [2]): 2.5 nM

SMILES: COC(=O)N[C@H](C(=O)N1CCC[C@H]1c1ncc(-c2ccc3oc4cc(-c5cnc([C@@H]6CCCN6C(=O)[C@@H](NC(=O)OC)C(C)C)[nH]5)c(F)cc4c(=O)c3c2)[nH]1)C(C)C
- EC50 (Hepatitis C virus [1]): 0.03 nM
- EC50 (Hepatitis C virus [2]): 0.6 nM

SMILES: COC(=O)N[C@H](C(=O)N1CCC[C@H]1c1ncc(-c2ccc3c(c2)[nH]c2cc(-c4cnc([C@@H]5CCCN5C(=O)[C@@H](NC(=O)OC)C(C)C)[nH]4)ccc23)[nH]1)C(C)C
- EC50 (Hepatitis C virus [1]): 0.18 nM
- EC50 (Hepatitis C virus [2]): 16.5 nM

SMILES: COC(=O)N[C@H](C(=O)N1CCC[C@H]1c1ncc(-c2ccc3c(c2)Oc2ccc(-c4cnc([C@@H]5CCCN5C(=O)[C@@H](NC(=O)OC)C(C)C)[nH]4)cc2C32CC2)[nH]1)C(C)C
- EC50 (Hepatitis C virus [1]): 0.02 nM
- EC50 (Hepatitis C virus [2]): 0.065 nM

SMILES: COC(=O)N[C@H](C(=O)N1CCC[C@H]1c1ncc(-c2ccc(-c3ccc(-c4cnc([C@@H]5CCCN5C(=O)[C@@H](NC(=O)OC)C(C)C)[nH]4)cc3)cc2)[nH]1)C(C)C [DACLATASVIR]
- EC50 (Hepatitis C virus [14]): 0.45 nM
- EC50 (Hepatitis C virus [1]): 0.073 nM
- EC50 (Hepatitis C virus [2]): 0.14 nM
- EC50 (Hepatitis C virus [15]): 0.041 nM
- EC50 (Hepatitis C virus [16]): 0.051 nM
- EC50 (Hepatitis C virus [13]): 0.67 nM

SMILES: COC(=O)N[C@H](C(=O)N1CCC[C@H]1c1ncc(-c2ccc3c(c2)oc2cc(-c4cnc([C@@H]5CCCN5C(=O)[C@@H](NC(=O)OC)C(C)C)[nH]4)ccc23)[nH]1)C(C)C
- EC50 (Hepatitis C virus [1]): 0.041 nM
- EC50 (Hepatitis C virus [2]): 0.4 nM
- EC50 (Hepatitis C virus [13]): 1.3 nM

SMILES: COC(=O)N[C@H](C(=O)N1CCC[C@H]1c1ncc(-c2ccc3c(c2)Cc2cc(-c4cnc([C@@H]5CCCN5C(=O)[C@@H](NC(=O)OC)C(C)C)[nH]4)ccc2-3)[nH]1)C(C)C
- EC50 (Hepatitis C virus [1]): 0.042 nM
- EC50 (Hepatitis C virus [2]): 0.25 nM
- EC50 (Hepatitis C virus [13]): 3.8 nM

SMILES: COC(=O)N[C@H](C(=O)N1CCC[C@H]1c1ncc(-c2ccc3c(c2)c(=O)c2ccc(-c4cnc([C@@H]5CCCN5C(=O)[C@@H](NC(=O)OC)C(C)C)[nH]4)cc2n3C)[nH]1)C(C)C
- EC50 (Hepatitis C virus [1]): 0.028 nM
- EC50 (Hepatitis C virus [2]): 11.1 nM

SMILES: COC(=O)N[C@H](C(=O)N1CCC[C@H]1c1ncc(-c2ccc3c(c2)S(=O)(=O)c2cc(-c4cnc([C@@H]5CCCN5C(=O)[C@@H](NC(=O)OC)C(C)C)[nH]4)ccc2-3)[nH]1)C(C)C
- EC50 (Hepatitis C virus [1]): 0.13 nM
- EC50 (Hepatitis C virus [2]): 2 nM

SMILES: COC(=O)N[C@H](C(=O)N1CCC[C@H]1c1ncc(-c2ccc3c(c2)oc2ccc(-c4cnc([C@@H]5CCCN5C(=O)[C@@H](NC(=O)OC)C(C)C)[nH]4)cc23)[nH]1)C(C)C
- EC50 (Hepatitis C virus [1]): 0.033 nM
- EC50 (Hepatitis C virus [2]): 1.8 nM

SMILES: COC(=O)N[C@H](C(=O)N1CCC[C@H]1c1ncc(-c2ccc3c(c2)C(C)(C)c2cc(-c4cnc([C@@H]5CCCN5C(=O)[C@@H](NC(=O)OC)C(C)C)[nH]4)ccc2-3)[nH]1)C(C)C
- EC50 (Hepatitis C virus [1]): 0.037 nM
- EC50 (Hepatitis C virus [2]): 1.14 nM

SMILES: COC(=O)N[C@H](C(=O)N1CCC[C@H]1c1ncc(-c2ccc3oc4ccc(-c5cnc([C@@H]6CCCN6C(=O)[C@@H](NC(=O)OC)C(C)C)[nH]5)cc4c3c2)[nH]1)C(C)C
- EC50 (Hepatitis C virus [1]): 0.17 nM
- EC50 (Hepatitis C virus [2]): 9 nM

SMILES: COC(=O)N[C@H](C(=O)N1CCC[C@H]1c1ncc(-c2ccc3c(c2)Cc2ccc(-c4cnc([C@@H]5CCCN5C(=O)[C@@H](NC(=O)OC)C(C)C)[nH]4)cc2O3)[nH]1)C(C)C
- Tmax [3]: 3.33 h
- Cmax [4]: 380 ng/mL
- bioavailability [5]: 41.1%
- AUC(0-t) [6]: 1060 ng·h/mL
- EC50 (Hepatitis C virus [1]): 0.013 nM
- half-life [7]: 1.33 h
- Vd [8]: 1.32 L/kg
- concentration at 4 h [9]: 371 ng/mL
- EC50 (Hepatitis C virus [2]): 0.098 nM
- AUC(0-t) [10]: 2090 ng·h/mL
- concentration at 4 h [11]: 462 ng/mL
- clearance [12]: 15.8 mL/min/kg

SMILES: COC(=O)N[C@H](C(=O)N1CCC[C@H]1c1ncc(-c2ccc3c(=O)c4cc(-c5cnc([C@@H]6CCCN6C(=O)[C@@H](NC(=O)OC)C(C)C)[nH]5)ccc4oc3c2)[nH]1)C(C)C
- Tmax [3]: 0.5 h
- Cmax [4]: 96.5 ng/mL
- bioavailability [5]: 6.7%
- AUClast (Rattus norvegicus [17]): 626 ng·h/mL
- EC50 (Hepatitis C virus [1]): 0.028 nM
- half-life [7]: 0.92 h
- Vd [8]: 3.57 L/kg
- concentration at 4 h [9]: 14 ng/mL
- EC50 (Hepatitis C virus [2]): 0.173 nM
- AUC(0-t) [10]: 197 ng·h/mL
- concentration at 4 h [11]: 25 ng/mL
- CL (Rattus norvegicus [18]): 55 mL/min/kg
- EC50 (Hepatitis C virus [13]): 1.4 nM
